Experiment: gradient 5% acetonitrile 3 min, to 50% in 2 min, to 85% in 15 min, held 3 min, 100 µL/min
Conditions: column: Zorbax Extend-C18 2.1 x 50 mm; eluents: water / acetonitrile, 0.1% formic acid
How it was run: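 A Zorbax Extend-C18 column (2.1 × 50 mm, 1.8 μm) run at 100 μL/min with water and acetonitrile, both containing 0.1% formic acid, separated mixtures of ~100 pure standards. The HPLC was coupled to a quadrupole time-of-flight mass spectrometer operated in positive and negative ionization mode, with dead and dwell volumes of 40 μL and 900 μL. Each retention time was taken from a computationally picked adduct peak that was then manually inspected.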

Row | RP-LC retention time [s] | SMILES
1 | 541 | C[C@@]1(O)CCN(Cc2cccc(C#N)c2)C[C@H]1N1CCCC1
2 | 744 | CCc1c(C(=O)O)nnn1-c1ccc(C)c(F)c1
3 | 717 | COc1ccc(NS(=O)(=O)c2cc3n(c2)CCN(C(C)C)C3=O)cc1
4 | 926 | COCCc1noc(-c2nc(-c3ccccc3F)no2)n1
5 | 565 | CC(NC(=O)C1CCCN(c2cnc3nccnc3c2)C1)c1ccccn1 (stereo not given)
6 | 1310 | CCCOc1ccc(-c2noc(Cc3nc(-c4ccc5c(c4)OCO5)cs3)n2)cc1
7 | 592 | Cc1ccc2nc(NC(=O)CN3CCC(C(N)=O)CC3)sc2c1
8 | 1010 | C(=C\c1cccs1)/c1nc(-c2cccc(-c3ccn[nH]3)c2)no1
9 | 602 | O=C(NC1CCN(c2nnc3ccc(Cl)cn23)CC1)c1ccsc1
10 | 680 | CN(C)c1cccc(C(=O)N2CCCN(c3cc(-c4ccc5c(c4)OCO5)[nH]n3)CC2)c1
11 | 745 | COc1cccc(-c2ccc3nc(N4CCC(C(N)=O)CC4)sc3n2)c1
12 | 858 | CCC(C)NC(=O)c1cn(-c2ncccc2-c2nc(-c3ccccc3)no2)cn1 (stereo not given)
13 | 809 | CN(C)C(=O)c1csc(S(=O)(=O)N2CCC(C(=O)N3CCc4ccccc43)CC2)c1
14 | 890 | Cc1cccc(C(=O)NCCc2c[nH]c3ccc(C)cc23)c1
15 | 603 | O=C(c1csc(C(=O)N2CCCC2)n1)N1CCN(Cc2ccccc2)CC1
16 | 1130 | CC(C)n1nnc2ccc(-c3noc(-c4ccccc4)n3)cc21
17 | 1140 | O=C(Cc1ccccc1Cl)N1CCc2nc(-c3ccc(Cl)cc3)ncc2C1
18 | 561 | Cc1cccc(-c2[nH]ncc2CN)c1
19 | 847 | CN1C(=O)C(C)(C(=O)Nc2ccc(F)cc2)Oc2cccnc21 (stereo not given)
20 | 697 | COc1cccc2cc(C(=O)NCC3CCN(C(=O)c4snnc4C)CC3)oc12
21 | 1070 | COc1cc(Nc2nc(-c3nnn(-c4cc(Cl)ccc4OC)c3C)ns2)cc(OC)c1
22 | 954 | CCn1cc(-c2ccc(Cl)cc2)cc1C(=O)NCCOC
23 | 820 | COCc1noc(CC2CCOC3(CCN(C(=O)C4(c5ccccc5)CC4)CC3)C2)n1 (stereo not given)

Row | RP-LC retention time [s] | SMILES
24 | 670 | COc1ccc(-c2ncccc2CNS(=O)(=O)c2cccc(OC)c2)cc1
25 | 674 | O=C(NCC(=O)N1CC[C@H](NC2CCC(O)(c3ccc(-c4ncccn4)cn3)CC2)C1)c1cccc(C(F)(F)F)c1 (stereo not given in full)
26 | 851 | COCCn1cc(C(=O)NCC(C)C)c2nn(-c3ccccc3)c(=O)c-2c1
27 | 748 | COCCNC(=O)c1ccc2c(c1)N(Cc1ccc(C)cc1)C(=O)CO2
28 | 609 | CC(=O)N1C[C@@H](C(=O)NCCc2c(C)noc2C)[C@H](c2nc(C)no2)C1
29 | 956 | Cc1ccc(S(=O)(=O)N2CCCC(CCC(=O)NC3CCCCC3)C2)cc1 (stereo not given)
30 | 820 | CN(C)c1cc2c(Nc3ccc4c(cnn4Cc4ccccc4)c3)ncnc2cn1
31 | 1090 | COc1ccc(-n2nnc(-c3nc(-c4ccccc4OC)cs3)c2N)cc1
32 | 783 | CCc1nc2onc(C)c2c(=O)n1CC(=O)NCc1ccc(F)cc1
33 | 821 | CCOC(=O)c1nc(NCCc2ccc(C)cc2)c2ccccc2n1
34 | 1230 | Fc1ccccc1-c1nc(-c2cn(-c3ccccc3)nn2)no1
35 | 878 | COc1ccc2nc(C(=O)NC3CCCCCC3)cn2n1
36 | 894 | Cc1ccc(S(=O)(=O)N(C)CC2CCOCC2)cc1Cl
37 | 1180 | CCCOc1nc2ccccc2nc1N1CCCC(C(=O)NCc2ccccc2)C1 (stereo not given)
38 | 1000 | CCc1ccc(OCc2nc(CCN(C)C(=O)Cc3cccs3)no2)cc1
39 | 1050 | Cc1ccccc1Nc1c(-c2ccc(Cl)cc2)nc2ccc(Cl)cn12
40 | 584 | COC(=O)c1c(C)[nH]c(C(=O)N2CCC(CC(=O)NCCN3CCOCC3)CC2)c1C
41 | 755 | Cc1ccc(NC(=O)N2C[C@@H](F)C[C@H]2C(=O)N2CCCCC2)cc1F
42 | 590 | O=C(Nc1cccc(-c2nnc3n2CCCC3)c1)c1cc(C2CC2)[nH]n1
43 | 562 | Cc1noc2ncnc(N3CCN(c4ccccn4)CC3)c12
44 | 586 | Cn1nc(C(=O)N2CCCCC2)c2c1CCN(C(=O)CCC(=O)NCCN1CCCCC1)C2
45 | 894 | COc1cc(OC)cc(-c2noc(-c3cn(C)c4ccc(C)cc4c3=O)n2)c1
46 | 648 | CCCNc1cc(N2CCC(CCC(=O)Nc3ccc(OC)c(OC)c3)CC2)ncn1

Row | RP-LC retention time [s] | SMILES
47 | 841 | O=C(c1cnn2cc(Br)cnc12)N1CCCC1c1ccccc1F (stereo not given)
48 | 589 | CCOCCCNC(=O)c1ccc2nc(CCc3ccc(NC(C)=O)cc3)[nH]c2c1
49 | 977 | COc1cc(OC)cc(-c2nc(C3CC(=O)N(c4ccc(F)cc4)C3)no2)c1 (stereo not given)
50 | 1100 | CCc1ccc(NC(=O)C2CCN(S(=O)(=O)c3cc(-c4noc(C5CC5)n4)cs3)CC2)cc1
51 | 720 | CCC(=O)N1c2ccc(S(=O)(=O)N3CCCCC3)cc2CC1C(=O)NCCc1ccccc1 (stereo not given)
52 | 817 | Cc1nc(CSc2ccc(-c3cccc([N+](=O)[O-])c3)nn2)cs1
53 | 1270 | CCCCCCC(=O)Nc1nc(-c2ccc(Cl)cc2)cs1
54 | 932 | CCOc1ccc(OCC)c(NS(=O)(=O)c2cc(-c3c(CC)noc3NC(C)=O)ccc2C)c1
55 | 845 | COc1ccc(-c2nc3ncccn3c2Nc2cccc(Cl)c2C)cc1
56 | 652 | O=C(N1CCN(c2ccccc2F)CC1)C1(CCO)CCN(c2ncccn2)C1 (stereo not given)
57 | 1090 | COc1ccc(NC(=O)Cn2c(C)nc3c(sc4nc(-c5ccccc5)ccc43)c2=O)cc1Cl
58 | 565 | CCC(CC)C(=O)N1CCC2(CC1)CN(C)CC2c1nc(-c2ccncc2)n[nH]1 (stereo not given)
59 | 619 | Cc1ccc(CS(=O)(=O)N[C@@H]2CN(c3ncccn3)C[C@H]2CN(C)C)cc1
60 | 854 | CCOc1cc(=O)n2c(c1C(=O)Nc1cc(Cl)ccc1OC)CCCC2
61 | 1220 | Cc1ccc(NC(=O)Cn2nc(N3CCCC(C)C3)c3ccccc3c2=O)cc1F (stereo not given)
62 | 826 | O=C(c1ccc(C(F)(F)F)cc1)N1CCC(n2c(-c3ccco3)nc3cccnc32)C1 (stereo not given)
63 | 628 | Cc1ncn(CC(=O)Nc2ccccc2F)c(=O)c1C
64 | 851 | O=c1ccc(N2CCCC(NS(=O)(=O)c3ccc(F)c(F)c3)C2)nn1CC1CC1 (stereo not given)
65 | 673 | O=C(c1cccs1)N1CCC(c2nncn2Cc2ccccc2)CC1
66 | 908 | Cc1ccc(Nc2cc(C)nc(N3CCN(C(=O)Nc4ccc(Cl)cc4)CC3)n2)cc1
67 | 730 | CC(C)NC(=O)N(C)Cc1ccsc1
68 | 1200 | CCOc1ccc(-c2noc(Cc3nnc(-c4ccc(C)c(C)c4)o3)n2)cc1
69 | 590 | Cn1ccnc1C(=O)N1CCC(Cc2noc(C3CC3)n2)C1 (stereo not given)

Row | RP-LC retention time [s] | SMILES
70 | 720 | CCc1noc([C@@H]2CC(F)(F)CN2C(=O)c2ocnc2C)n1
71 | 610 | COc1cccc(OCC(O)CN2CCN(Cc3ccccc3)CC2)c1 (stereo not given)
72 | 906 | Cc1ccnc(Nc2nc(-c3ccc(F)c(C)c3)cs2)c1
73 | 1010 | CCC(=C(c1ccccc1)c1ccc(OCCN(C)C)cc1)c1ccccc1
74 | 910 | CCc1ccc(NC(=O)c2cccn2Cc2noc(C)n2)cc1
75 | 769 | Cc1c(C(=O)N2CCN(c3ccc(Cl)cc3)CC2)sc2nc[nH]c(=O)c12
76 | 1060 | Cc1ccc(S(=O)(=O)N2CCC(n3cnc4c(C)cccc4c3=O)CC2)c(C)c1
77 | 878 | CCC(C(=O)Nc1ccc(Cl)cc1)n1cnc2nc3c(cc2c1=O)CCCC3 (stereo not given)
78 | 585 | Cc1cc(N2CCN(C)CC2)nc(N2CCN(C(=O)c3ccc(-c4ccccc4)cc3)CC2)n1
79 | 714 | Cc1cnn(CC(=O)N2CC(n3cc(COc4ccc(F)cc4)nn3)C2)c1
80 | 867 | CCc1ccc(NC(=O)N2CCC(n3cnc4cc(F)ccc4c3=O)CC2)cc1
81 | 621 | COc1cc(-c2nc3ncccn3c2Nc2ccc3c(c2)OCO3)ccc1O
82 | 764 | CCC(C(=O)N1CCOCC1)n1c2ccccc2c2cnn(C)c(=O)c21 (stereo not given)
83 | 589 | CC(C(=O)NCCN1CCOCC1)C1CCN(C(=O)c2cc3cc(Cl)ccc3[nH]2)CC1 (stereo not given)
84 | 808 | O=C(Cn1ccn2nc(-c3ccccc3)c(CO)c2c1=O)Nc1ccccc1Cl
85 | 885 | COc1ccc2nc(NC(=O)Cc3csc4nc(-c5ccc(C)c(C)c5)cn34)sc2c1
86 | 670 | O=C(Nc1ccc2ncnc(N3CCCCC3)c2c1)c1cccs1
87 | 885 | O=C(CN1C(=O)CCCc2cc(S(=O)(=O)N3CCCCC3)ccc21)Nc1ccccc1
88 | 1040 | Cc1ccc(C(=O)Nc2nnc(SCc3nnc(-c4ccccc4C)o3)s2)cc1
89 | 604 | Cc1ccc(NC(=O)N2CCC(N3CCN(Cc4ccccn4)C(=O)C3=O)CC2)cc1

Row | SMILES | RP-LC retention time [s]
90 | CCCn1cc(C(=O)NCC2CCCO2)c2cccnc21 (stereo not given) | 669

Reference: the METLIN SMRT retention time set (Domingo-Almenara et al. 2019)
